Tests used:
[1] = tested on: tactile allodynia in a spinal nerve ligation neuropathic pain model; experiment: Lumbar 5/6 spinal nerve ligation neuropathic pain model, mechanical paw withdrawal threshold (von Frey); assay type: in vivo, rat
Excerpt: Neuropathic pain was induced following the methods of Kim and Chung. Kim S H, Chung J M. An experimental model for peripheral neuropathy produced by segmental spinal nerve ligation in the rat. Pain 1992; 50:355-63. Rats were anesthetized and placed prone under a microsurgical apparatus. A midline incision was made on the back, and the right paraspinal muscles were separated from the spinous processes at the L4-S2 levels. The L6 transverse process was carefully removed, and the L4/5 spinal nerves were identified. The L5 nerve was tightly ligated with a 6-0 silk suture. The right L6 spinal nerve was then located just caudal and medial to the sacroiliac junction and tightly ligated with a silk suture.
Two weeks later after spinal nerve ligation, Intrathecal catheters (PE-10 tubing) was inserted into the rats while they were anesthetized with isoflurane, as described by Yaksh and Rudy. Yaksh T L, Rudy T A. Chronic catheterization of the spinal subarachnoid space. Physiology & Behavior 1976; 17:1031-6. A midline incision was made on the back of the neck. The muscle was freed at the attachment to the skull exposing the cisternal membrane. The membrane was opened with a stab blade and an 8.5 cm polyethylene (PE-10) catheter was then inserted through the cisternal opening, and passed carefully and caudally into the intrathecal space at the L1-L3 spinal segments. The end of the catheter was tunneled through the subcutaneous space over the frontal bones, flushed with 10 μl saline, and then plugged with a short length of wire Animal testing was performed 5-7 days after intrathecal catheter placement.
To assess mechanical allodynia, the mechanical paw withdrawal threshold was measured with a series of von Frey hairs (range 0.4-15 g). Rats were placed in elevated Perspex enclosures (28 cm×15 cm×18 cm) with wire mesh bases and given 15-20 min to acclimatize to the testing environment. Rats will be allowed to acclimatize for 30 min in a clear plastic cage with a wire mesh bottom. The calibrated von Frey filament fibers were applied to the hindpaw briefly for 6 seconds to determine the paw withdrawal threshold before and after drug injection (intraperitoneally or intrathecally). A series of von Frey filaments with exponentially incremental stiffness (0.4, 0.7, 1.2, 2.0, 3.6, 5.5, 8.5 and 15 g) were used to measure the 50% threshold for hindpaw withdrawal in awake, unrestrained rats. Chaplan S R, Bach F W, Pogrel J W, Chung J M, Yaksh T L. Quantitative assessment of tactile allodynia in the rat paw. Journal of Neuroscience Methods 1994; 53:55-63. Brisk paw withdrawal from the pressure of a filament gently bent against the plantar paw was defined as a positive response, and absence of withdrawal within 6 s as a negative response. Filaments were touched to the hindpaw in sequential ascending or descending order until the threshold of response is crossed (allowing about 10 s between each increment of the von Frey filaments). Each time the threshold is crossed, the direction of stimulus presentation was reversed and the procedure will be resumed. Four responses were collected after the first threshold detection, and the 50% withdrawal thresholds were interpolated. In cases where response thresholds fell outside the range of detection, 15.00 and 0.25 g were, respectively, assigned for continuous negative or positive responses to the limit of stimuli.
All surgical procedures were performed under deep isoflurane anesthesia in 100% O2. The spinal nerve ligation (SNL) was performed as described previously. Kim, S. H., et al., An Experimental Model for Peripheral Neuropathy Produced by Segmental Spinal Nerve Ligation in the Rat, Pain, 1992, 50:355-63. Briefly, a midline incision above the lumbar spine exposed the left L6 transverse process. The process was then removed, the left L5 and L6 spinal nerves were isolated, and both nerves were tightly ligated with 6-0 silk. […]

[2] = tested on: Paclitaxel-induced neuropathy; experiment: Prevention of paclitaxel-induced neuropathy; assay type: in vivo, rat; conditions: 15 mg/kg intraperitoneally 30 minutes prior to paclitaxel; rats
Procedure: A mixture of saline and CREMOPHOR®ELP 10% was used as vehicle for paclitaxel. It was injected at a concentration of 1.0 mg/kg intraperitoneally to the chemotherapy-treated group of rats on 4 consecutive days for a final cumulative dose of 4 mg/kg to 18 rats.
Assessment of neuropathic pain. Paw withdrawal thresholds were determined daily in both hind paws of each animal using calibrated von Frey monofilaments according to an up-down procedure. A series of von Frey filaments with exponentially incremental degrees of stiffness (0.4, 0.7, 1.2, 2.0, 3.6, 5.5, 8.5, and 15.1 g) was used to measure the 50% threshold for both hindpaw withdrawal in awake, unrestrained rats. Chaplan, S. R., Quantitative assessment of tactile allodynia in the rat paw, Journal of Neuroscience Methods, 1994, 53:55-63. […]
Group 1 of rats received paclitaxel for four days, as described immediately above in subpart (A) titled “Paclitaxel-induced Neuropathy.” In group 2, a dose of 15 mg/kg of the compound of Example 6, injected intraperitoneally was administered 30 minutes prior to the administration of paclitaxel. […] Paw withdrawal thresholds were determined daily in both hind paws of each animal using calibrated von Frey monofilaments according to an up-down procedure as described immediately above in subpart (A) titled “Paclitaxel-induced Neuropathy.” The results are shown in FIG. 14.

[3] = target: T1, human CB1 (hCB1) receptor (Homo sapiens, UniProt P21554); experiment: CB1 binding assay, competitive binding of [3H]CP 55940; design: % Inhibition of Control Specific Binding CB1: concentration or dose not given beside the values
T1 construct: expressed in transfected cells; host or cells: CHO (Chinese hamster ovary) cells, membranes
In short: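 CHO cell membranes expressing human CB1 (25 μg protein) incubated 120 min at 37 °C with 0.5 nM [3H]CP 55940 in Tris-HCl pH 7.4 buffer with MgCl2, EDTA, 0.3% BSA. Filtration and scintillation counting; compound tested at 1 μM, given as percent inhibition of control specific binding.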

T1 sequence (P21554 whole entry): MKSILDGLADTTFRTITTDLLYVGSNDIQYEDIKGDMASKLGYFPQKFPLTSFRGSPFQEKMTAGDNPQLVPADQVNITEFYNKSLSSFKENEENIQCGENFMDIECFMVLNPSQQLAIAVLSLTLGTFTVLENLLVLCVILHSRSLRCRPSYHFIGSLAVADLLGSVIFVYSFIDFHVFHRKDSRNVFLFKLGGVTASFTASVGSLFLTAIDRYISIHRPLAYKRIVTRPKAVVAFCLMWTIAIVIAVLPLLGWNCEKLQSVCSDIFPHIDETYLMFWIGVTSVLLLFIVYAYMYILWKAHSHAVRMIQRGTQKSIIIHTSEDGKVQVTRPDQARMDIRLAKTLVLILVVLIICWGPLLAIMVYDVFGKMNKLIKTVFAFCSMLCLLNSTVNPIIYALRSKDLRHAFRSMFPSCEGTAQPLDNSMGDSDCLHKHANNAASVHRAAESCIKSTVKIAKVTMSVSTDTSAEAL

## CCCCCCN1C(=O)/C(=N\NC(=O)c2ccccc2)c2ccccc21 [Example 6, Benzoic acid [1-n-hexyl-2-oxo-1,2-dihydro-indol-3-ylidene]-hydrazide]
[1]; IP 30 mg/kg, rats
  duration of peak threshold: one
  peak paw withdrawal threshold: 15 g
  time of peak effect following administration: ≤ 5 min
[1]; IP administration of 30 mg/kg in 0.5 ml, rats
  effect on mechanical paw withdrawal threshold: produced an increase in mechanical paw withdrawal threshold
[1]; Rattus norvegicus, ip, rats, spinal nerve ligation, 95% CI, read-out: ED50 of the anti-allodynic effect
  ED50: 5.9 mg/kg
[1]; i.p., rats, spinal nerve ligation, 95% CI
  ED90 of the anti-allodynic effect: 12 (95% CI 9.6-15.5) mg/kg
[1]; intrathecal (IT) administration, at 5 min, rats
  effect on paw withdrawal threshold: short-lived modest increase in paw withdrawal threshold
[1]; rats of the nerve-ligation study
  behavioral abnormalities or side effects: No behavioral abnormalities or side effects were noted
[2]
  development of paclitaxel-induced peripheral neuropathy (paw withdrawal threshold): prevented the development of neuropathic pain induced by paclitaxel
[3]; CB1, Test Concentration 1.0E−05 (MD)
  % Inhibition of Control Specific Binding: 96%
[3]; CB1, Test Concentration 1.0E−05 (MD), 1st determination
  % of Control Specific Binding 1st: 4.5%
[3]; CB1, Test Concentration 1.0E−05 (MD), 2nd determination
  % of Control Specific Binding 2nd: 4.5%
[3]; CB1, Test Concentration 1.0E−05 (MD), mean
  % of Control Specific Binding Mean: 4.5%
[3]; Table 3, concentration not given
  % Inhibition of Control Specific Binding CB1: 96%
[3]; at 1 μM, specific binding of [3H]-CP55940, CHO membranes
  inhibition at 1 µM: 95.5%
[3]; at 10 μM, specific binding of [3H]-CP55940
  inhibition at 10 µM: 95.5%

— US9079854B2 (priority 2007, dated 2015)
